Assay results reported in patent US11419806B2, “Prebiotic oral care methods using a saccharide” (Colgate-Palmolive Company, priority 2013, dated 2022).

Experiments:
Experiment in all cases: Twenty-four hour biofilm growth (crystal violet)
Assay type in all cases: cell-based
A. actinomycetemcomitans = test system: A. actinomycetemcomitans
Experimental: (§1) The increase in biofilm formation of the tested bacteria in response to selected saccharides (D-turanose, D-lactitol, myo-inositol, and N-acetyl-D-mannosamine) was investigated by setting up biofilm growth assays in a nutritionally rich medium (brain heart infusion broth (BHI), Oxoid), over 24 hours. Late exponential growth phase liquid cultures were prepared by transferring the respective bacterium from blood agar plates to BHI and overnight incubation at 37° C. in an anaerobic atmosphere for A. viscosus, V. parvula, P. gingivalis, P. intermedia, T. forsythia, A. naeslundii, and C. sputigena, and in a 5% CO2 environment for S. salivarius, S. sanguinis, S. mitis, A. actinomycetemcomitans, S. mutans, and S. gordonii. Overnight cultures were transferred to BHI and adjusted to a concentration of 1×10^7 CFU/ml by measuring the optical density at 600 nm (OD600) (BioRad SmartSpec 3000). For each strain, 200 μl of the bacterial suspension was added to a 96-well plate containing 20 μl of the respective saccharides. Final concentrations of the saccharides were set to 5, 10, 20 and 25 μmol/ml. […] Additionally, for each bacterium tested, a background control, to correct for background staining, was added. This background control contained the bacterium tested and 0.03 weight % chlorhexidine, as an antiseptic. Plates were incubated as previously described. After 24 hrs the supernatant was removed from the wells of the plates. The wells were washed twice with 1×100 μL PBS (phosphate buffered saline), fixed for 20 minutes with 96% vol. ethanol (96% vol. solution in water) and the biofilm retained at the bottom of the wells was stained with 1 weight % crystal violet (1 weight % solution in water). The bound dye was dissolved with 5% vol. acetic acid (5% vol. solution in water). Quantification of the stained biofilm was performed by measuring the absorbance at 630 nm using a Multiskan Ascent microplate reader (Thermo Scientific).
(§2) The experiment was carried out on three different days (thus providing 3 biological replicas) and each day the experiment was carried out in quadruple (thus providing 4 technical replicas) for each combination of bacterium with saccharide and for each control. For each day and for each combination, the average (mean) of the values obtained (as detailed above) for the four technical replicas was calculated to provide a single value for each combination on each day. The values shown in Tables 7a, 7b, 8a, 8b, below, are the average (mean) of the three single values obtained for each combination of bacterium with saccharide.

A. naeslundii = test system: A. naeslundii
Experimental: as §1, §2

A. viscosus = test system: A. viscosus
Experimental: as §1, §2

C. sputigena = test system: C. sputigena
Experimental: as §1, §2

P. gingivalis = test system: P. gingivalis
Experimental: as §1, §2

P. intermedia = test system: P. intermedia
Experimental: as §1, §2

S. gordonii = test system: S. gordonii
Experimental: as §1, §2

S. mitis = test system: S. mitis
Experimental: as §1, §2

S. mutans = conditions: S mutans
Experimental: as §1, §2

S. salivarius = test system: S. salivarius
Experimental: as §1, §2

S. sanguinis = test system: S. sanguinis
Experimental: as §1, §2

T. forsythia = test system: T. forsythia
Experimental: as §1, §2

V. parvula = test system: V. parvula
Experimental: as §1, §2

In the case of `CC(=O)N[C@H](C=O)[C@@H](O)[C@H](O)[C@H](O)CO` [N-acetyl-D-mannosamine, 2-acetamido-2-deoxy-D-mannose], the “biofilm growth: OD 630 nm at 24 hrs divided by OD of control (control = 1)” value (A. actinomycetemcomitans; 5 μmol/ml) is reported as 0.9519, the “biofilm growth: OD 630 nm at 24 hrs divided by OD of control (control = 1)” value (A. actinomycetemcomitans; 10 μmol/ml) is reported as 1.0569 and the “biofilm growth: OD 630 nm at 24 hrs divided by OD of control (control = 1)” value (A. actinomycetemcomitans; 20 μmol/ml) is reported as 0.6532. The “biofilm growth: OD 630 nm at 24 hrs divided by OD of control (control = 1)” value (A. actinomycetemcomitans; 25 μmol/ml) was 0.7158, the “biofilm growth: OD 630 nm at 24 hrs divided by OD of control (control = 1)” value (A. naeslundii; 5 μmol/ml) was 1.3056 and the “biofilm growth: OD 630 nm at 24 hrs divided by OD of control (control = 1)” value (A. naeslundii; 10 μmol/ml) was 1.4302. The “biofilm growth: OD 630 nm at 24 hrs divided by OD of control (control = 1)” value (A. naeslundii; 20 μmol/ml) was 1.1823, the “biofilm growth: OD 630 nm at 24 hrs divided by OD of control (control = 1)” value (A. naeslundii; 25 μmol/ml) was 1.2220 and the “biofilm growth: OD 630 nm at 24 hrs divided by OD of control (control = 1)” value (A. viscosus; 5 μmol/ml) was 0.8126. For the same compound, the “biofilm growth: OD 630 nm at 24 hrs divided by OD of control (control = 1)” value (A. viscosus; 10 μmol/ml) was 0.9165, the “biofilm growth: OD 630 nm at 24 hrs divided by OD of control (control = 1)” value (A. viscosus; 20 μmol/ml) was 0.5093 and the “biofilm growth: OD 630 nm at 24 hrs divided by OD of control (control = 1)” value (A. viscosus; 25 μmol/ml) was 0.6492. The “biofilm growth: OD 630 nm at 24 hrs divided by OD of control (control = 1)” value (C. sputigena; 5 μmol/ml) was 0.9108, the “biofilm growth: OD 630 nm at 24 hrs divided by OD of control (control = 1)” value (C. sputigena; 10 μmol/ml) was 0.9323 and the “biofilm growth: OD 630 nm at 24 hrs divided by OD of control (control = 1)” value (C. sputigena; 20 μmol/ml) was 0.8871. For the same compound, the “biofilm growth: OD 630 nm at 24 hrs divided by OD of control (control = 1)” value (C. sputigena; 25 μmol/ml) was 0.8822, the “biofilm growth: OD 630 nm at 24 hrs divided by OD of control (control = 1)” value (P. gingivalis; 5 μmol/ml) was 0.6683 and the “biofilm growth: OD 630 nm at 24 hrs divided by OD of control (control = 1)” value (P. gingivalis; 10 μmol/ml) was 0.8031. For the same compound, the “biofilm growth: OD 630 nm at 24 hrs divided by OD of control (control = 1)” value (P. gingivalis; 20 μmol/ml) was 0.7270, the “biofilm growth: OD 630 nm at 24 hrs divided by OD of control (control = 1)” value (P. gingivalis; 25 μmol/ml) was 0.8345 and the “biofilm growth: OD 630 nm at 24 hrs divided by OD of control (control = 1)” value (P. intermedia; 5 μmol/ml) was 1.1437. The “biofilm growth: OD 630 nm at 24 hrs divided by OD of control (control = 1)” value (P. intermedia; 10 μmol/ml) was 1.5179, the “biofilm growth: OD 630 nm at 24 hrs divided by OD of control (control = 1)” value (P. intermedia; 20 μmol/ml) was 1.0689 and the “biofilm growth: OD 630 nm at 24 hrs divided by OD of control (control = 1)” value (P. intermedia; 25 μmol/ml) was 1.2252. For the same compound, the “biofilm growth: OD 630 nm at 24 hrs divided by OD of control (control = 1)” value (S. gordonii; 5 μmol/ml) was 0.7178, the “biofilm growth: OD 630 nm at 24 hrs divided by OD of control (control = 1)” value (S. gordonii; 10 μmol/ml) was 1.0041 and the “biofilm growth: OD 630 nm at 24 hrs divided by OD of control (control = 1)” value (S. gordonii; 20 μmol/ml) was 0.5487. For the same compound, the “biofilm growth: OD 630 nm at 24 hrs divided by OD of control (control = 1)” value (S. gordonii; 25 μmol/ml) was 0.6746, the “biofilm growth: OD 630 nm at 24 hrs divided by OD of control (control = 1)” value (S. mitis; 5 μmol/ml) was 2.4328 and the “biofilm growth: OD 630 nm at 24 hrs divided by OD of control (control = 1)” value (S. mitis; 10 μmol/ml) was 4.2456. For the same compound, the “biofilm growth: OD 630 nm at 24 hrs divided by OD of control (control = 1)” value (S. mitis; 20 μmol/ml) was 2.1524, the “biofilm growth: OD 630 nm at 24 hrs divided by OD of control (control = 1)” value (S. mitis; 25 μmol/ml) was 3.0078 and the “biofilm growth: OD 630 nm at 24 hrs divided by OD of control (control = 1)” value (S. mutans; 5 μmol/ml) was 0.8572. The “biofilm growth: OD 630 nm at 24 hrs divided by OD of control (control = 1)” value (S. mutans; 10 μmol/ml) was 0.8329, the “biofilm growth: OD 630 nm at 24 hrs divided by OD of control (control = 1)” value (S. mutans; 20 μmol/ml) was 0.7015 and the “biofilm growth: OD 630 nm at 24 hrs divided by OD of control (control = 1)” value (S. mutans; 25 μmol/ml) was 0.6922. For the same compound, the “biofilm growth: OD 630 nm at 24 hrs divided by OD of control (control = 1)” value (S. salivarius; 5 μmol/ml) was 0.6489, the “biofilm growth: OD 630 nm at 24 hrs divided by OD of control (control = 1)” value (S. salivarius; 10 μmol/ml) was 0.6824 and the “biofilm growth: OD 630 nm at 24 hrs divided by OD of control (control = 1)” value (S. salivarius; 20 μmol/ml) was 0.3314. The “biofilm growth: OD 630 nm at 24 hrs divided by OD of control (control = 1)” value (S. salivarius; 25 μmol/ml) was 0.3520, the “biofilm growth: OD 630 nm at 24 hrs divided by OD of control (control = 1)” value (S. sanguinis; 5 μmol/ml) was 1.5651 and the “biofilm growth: OD 630 nm at 24 hrs divided by OD of control (control = 1)” value (S. sanguinis; 10 μmol/ml) was 2.4890. The “biofilm growth: OD 630 nm at 24 hrs divided by OD of control (control = 1)” value (S. sanguinis; 20 μmol/ml) was 0.5600, the “biofilm growth: OD 630 nm at 24 hrs divided by OD of control (control = 1)” value (S. sanguinis; 25 μmol/ml) was 1.0289 and the “biofilm growth: OD 630 nm at 24 hrs divided by OD of control (control = 1)” value (T. forsythia; 5 μmol/ml) was 0.6028. The “biofilm growth: OD 630 nm at 24 hrs divided by OD of control (control = 1)” value (T. forsythia; 10 μmol/ml) was 0.9745, the “biofilm growth: OD 630 nm at 24 hrs divided by OD of control (control = 1)” value (T. forsythia; 20 μmol/ml) was 0.4562 and the “biofilm growth: OD 630 nm at 24 hrs divided by OD of control (control = 1)” value (T. forsythia; 25 μmol/ml) was 0.5433. The “biofilm growth: OD 630 nm at 24 hrs divided by OD of control (control = 1)” value (V. parvula; 5 μmol/ml) was 0.3811, the “biofilm growth: OD 630 nm at 24 hrs divided by OD of control (control = 1)” value (V. parvula; 10 μmol/ml) was 1.0958 and the “biofilm growth: OD 630 nm at 24 hrs divided by OD of control (control = 1)” value (V. parvula; 20 μmol/ml) was 0.1297. For the same compound, the “biofilm growth: OD 630 nm at 24 hrs divided by OD of control (control = 1)” value (V. parvula; 25 μmol/ml) was 0.3718.
